Experimental findings from PMC5859971 (Genes & Development, 2018) are described below.

Assay [1] deals with T1, SF3b subcomplex (SF3B1 residues 454–1304, SF3B3, PHF5A, SF3B5) (Homo sapiens, UniProt O75533+Q7RTV0).
T1 construct: SF3B1 was limited to the HEAT repeat domain from residues 454–1304 and cloned in-frame with an N-terminal Flag tag; Truncated SF3B1 and full-length SF3B3, PHF5A, and SF3B5 were synthesized; made in house; host or cells: SF21 insect cells (baculovirus, pFastBac1)
Briefly: Microscale thermophoresis (MST) compound binding to SF3b subcomplex. The settings on record: SF3b subcomplex bound to NTA-647 fixed at 10 nM. The method, then: (§1) The four-protein complex composed of the HEAT repeats of SF3B1 (residues 454–1304) as well as full-length SF3B3, SF3B5, and PHF5A was coexpressed and purified from insect cells. This complex is necessary and sufficient for compound binding in a scintillation proximity assay (SPA) format ([Teng et al. 2017]).
(§2) The SF3b subcomplex was first titrated against a fixed concentration (25 nM) of fluorescent label (NTA-647) to determine the optimal concentrations of protein and label for the MST experiment. After 15 min of incubation at room temperature, samples were loaded into Monolith NT.115 capillaries, and MST analysis was performed using a Monolith NT.115Pico. […] For subsequent compound-binding experiments, the SF3b subcomplex bound to NTA-647 was fixed at 10 nM, and the compound was titrated from 50 µM to 3 pM. After 15 min of incubation, samples were loaded into capillaries, and analysis was performed as described previously.
Binding of E7107 to SF3b 4-protein complex by MicroScale Thermophoresis (MST). The complex is
labeled with the fluorescent dye NTA-647 and kept constant at 10 nM. E7107 was titrated and a KD of
3.6 nM was determined for the interaction.
(1 picture or pasted object on this page, not shown here)
For orientation: In MST a laser heats a spot of the sample, and binding alters the fluorescence response.

The target of assay [2] is T2, wild-type mini-SF3b complex (4-protein SF3b complex) (Homo sapiens, UniProt O75533+Q7RTV0).
T2 construct: SF3B1 was limited to the HEAT repeat domain from residues 454–1304 and cloned in-frame with an N-terminal Flag tag; Truncated SF3B1 and full-length SF3B3, PHF5A, and SF3B5 were synthesized; made in house; host or cells: SF21 insect cells (baculovirus, pFastBac1)
Briefly: Scintillation proximity assay (SPA) competition with 3H-labeled pladienolide probe. The settings on record: competition with 10 nM 3H-labeled pladienolide probe, 25 nM protein; read-out: SPA IC50. Type of assay: binding. The method, then:
To further validate the pose of the compound, we analyzed the activity of several related chemical probes using the SPA with the purified protein complex ([Teng et al. 2017]). The SPA is formatted as a competition assay in which the purified protein complex is captured on a bead containing scintillant, incubated with test compounds over a dose response, and then competed off with a fixed concentration of ^3H-Plad compound. IC50 curves are then measured from the resulting light emitted from the bead (Table 1; Supplemental Fig. S4). In addition, we tested the probes in viability assays in two engineered cell lines: HCT116-PHF5A^WT and the sensitization line HCT116-PHF5A^R38C (Table 1; Supplemental Fig. S5). This facilitates profiling of chemical probe activity in the PHF5A background (wild type and mutant). The relative expression levels were further confirmed by Western blot analysis (Supplemental Fig. S5).
Batch immobilization of the anti-Flag antibody (Sigma) to the anti-mouse PVT SPA scintillation beads (PerkinElmer) was prepared as follows. For every 1.5 mg of beads, 10 µg of antibody was prepared in 150 µL of PBS. The antibody–bead mixture was incubated for 30 min at room temperature and centrifuged at 18,000g for 5 min. One-hundred-fifty microliters of PBS was used to resuspend every 1.5 mg of antibody–bead mixture. The aforementioned mini-SF3b complex was tested for ^3H-labeled pladienolide probe binding ([Kotake et al. 2007]). One-hundred microliters of binding reactions was prepared with […] of bead slurry and 0 or 50 nM protein in buffer (20 mM HEPES at pH 8, 200 mM KCl, 5% glycerol). The mixture was incubated for 30 min, and varying concentrations of ^3H-labeled pladienolide probe were added. The mixture was incubated for 30 min, and luminescence signals were read using a MicroBeta2 plate counter (PerkinElmer). Compound competition studies were performed with the wild-type mini-SF3b complex. One-hundred microliters of binding reactions was prepared with 50 µL of bead slurry, 25 nM protein in buffer, and compounds at varying concentrations. After 30 min of preincubation, 10 nM ^3H-labeled pladienolide probe was added. The reactions were incubated for 30 min, and luminescence signals were read.
The Scintillation proximity assay (SPA) competition assay with 10 nM 3H tracer for different Pladienolide analogs binding to the 4-protein SF3b complex. Error bars represent STD for 2 or more measurements. Red = E7107, Orange = PladD, Purple = PladF, Green = compound 2, red = compound 3, gray = compound 4, black = compound 5, blue = compound 6. […]
For orientation: In a scintillation proximity assay essentially only radioactivity close to the scintillant gives light.

For assay [3], the target named is T3, PHF5A^Y36C mutant complex (Homo sapiens, UniProt O75533+Q7RTV0, Y36C).
T3 construct: SF3B1 was limited to the HEAT repeat domain from residues 454–1304 and cloned in-frame with an N-terminal Flag tag; Truncated SF3B1 and full-length SF3B3, PHF5A, and SF3B5 were synthesized; Flag (N); made in house; host or cells: SF21 insect cells (inferred to be made as the wild-type complex)
Briefly: MST compound binding to PHF5A^Y36C mutant complex. To be noted: result in words. The method, then:
as §1, §2

Several values for one entry are separate records, joined by “and”; a condition that tells them apart may be missing. Identical values can stand only once. Entries after “also recorded” stand apart in the source; their conditions may differ.

T3 sequence (Q15393 whole entry, the tested form may be a part): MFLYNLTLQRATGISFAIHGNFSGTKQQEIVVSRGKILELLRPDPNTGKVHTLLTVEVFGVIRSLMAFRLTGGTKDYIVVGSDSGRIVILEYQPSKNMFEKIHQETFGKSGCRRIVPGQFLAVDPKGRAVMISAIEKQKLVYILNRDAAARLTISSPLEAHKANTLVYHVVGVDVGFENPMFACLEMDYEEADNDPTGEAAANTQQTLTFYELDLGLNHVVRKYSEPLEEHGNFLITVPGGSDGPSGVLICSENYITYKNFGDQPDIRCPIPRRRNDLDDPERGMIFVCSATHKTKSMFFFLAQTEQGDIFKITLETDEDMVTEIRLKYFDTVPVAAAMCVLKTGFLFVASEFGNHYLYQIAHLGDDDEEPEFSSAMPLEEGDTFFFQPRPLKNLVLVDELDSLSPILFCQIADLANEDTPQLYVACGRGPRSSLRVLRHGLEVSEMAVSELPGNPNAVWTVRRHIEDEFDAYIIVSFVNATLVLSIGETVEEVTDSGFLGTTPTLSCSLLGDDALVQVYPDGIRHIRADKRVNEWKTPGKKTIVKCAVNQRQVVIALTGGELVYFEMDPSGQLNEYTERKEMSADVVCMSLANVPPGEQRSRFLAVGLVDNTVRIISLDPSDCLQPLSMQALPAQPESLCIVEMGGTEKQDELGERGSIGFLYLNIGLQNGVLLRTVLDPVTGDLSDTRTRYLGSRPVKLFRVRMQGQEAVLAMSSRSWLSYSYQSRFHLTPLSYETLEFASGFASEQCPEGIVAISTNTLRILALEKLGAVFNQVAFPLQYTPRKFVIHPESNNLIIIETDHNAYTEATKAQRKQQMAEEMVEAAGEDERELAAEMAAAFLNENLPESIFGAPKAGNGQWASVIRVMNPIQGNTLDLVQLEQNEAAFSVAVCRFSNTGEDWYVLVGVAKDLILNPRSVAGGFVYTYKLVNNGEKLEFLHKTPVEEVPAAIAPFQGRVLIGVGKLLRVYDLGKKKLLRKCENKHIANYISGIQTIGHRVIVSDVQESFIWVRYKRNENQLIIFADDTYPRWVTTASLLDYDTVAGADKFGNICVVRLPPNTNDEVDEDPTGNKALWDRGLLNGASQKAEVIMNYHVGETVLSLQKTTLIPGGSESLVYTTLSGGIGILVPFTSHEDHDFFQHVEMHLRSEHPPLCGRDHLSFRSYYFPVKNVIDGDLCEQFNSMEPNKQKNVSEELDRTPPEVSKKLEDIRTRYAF
T3 sequence (Q9BWJ5 whole entry, further chain, the tested form may be a part): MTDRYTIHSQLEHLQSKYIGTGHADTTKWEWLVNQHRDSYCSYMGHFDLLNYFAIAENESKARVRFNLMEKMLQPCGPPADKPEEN
T3 sequence (O75533 454-1304): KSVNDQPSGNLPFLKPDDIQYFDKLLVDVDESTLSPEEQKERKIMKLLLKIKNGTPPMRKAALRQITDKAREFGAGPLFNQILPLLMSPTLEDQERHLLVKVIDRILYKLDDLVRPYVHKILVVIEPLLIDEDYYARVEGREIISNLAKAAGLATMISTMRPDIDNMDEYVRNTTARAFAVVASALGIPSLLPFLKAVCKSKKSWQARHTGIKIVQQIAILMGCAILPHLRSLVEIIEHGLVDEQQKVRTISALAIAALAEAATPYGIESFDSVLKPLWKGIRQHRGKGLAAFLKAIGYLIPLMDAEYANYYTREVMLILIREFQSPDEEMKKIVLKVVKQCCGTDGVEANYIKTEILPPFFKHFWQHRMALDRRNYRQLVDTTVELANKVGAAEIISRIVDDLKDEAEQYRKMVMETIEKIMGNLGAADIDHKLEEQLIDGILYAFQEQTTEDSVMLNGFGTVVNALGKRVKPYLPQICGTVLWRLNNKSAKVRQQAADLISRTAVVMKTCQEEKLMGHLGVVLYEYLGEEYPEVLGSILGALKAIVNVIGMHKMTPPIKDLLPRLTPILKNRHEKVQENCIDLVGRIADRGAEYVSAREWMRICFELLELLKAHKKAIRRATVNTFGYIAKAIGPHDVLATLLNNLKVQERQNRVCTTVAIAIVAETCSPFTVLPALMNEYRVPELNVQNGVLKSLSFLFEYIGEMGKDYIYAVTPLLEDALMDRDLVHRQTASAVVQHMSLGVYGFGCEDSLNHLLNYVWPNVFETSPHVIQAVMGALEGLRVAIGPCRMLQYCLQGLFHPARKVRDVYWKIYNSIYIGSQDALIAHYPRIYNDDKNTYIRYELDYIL
T3 sequence (Q7RTV0 whole entry Y36C, the tested form may be a part): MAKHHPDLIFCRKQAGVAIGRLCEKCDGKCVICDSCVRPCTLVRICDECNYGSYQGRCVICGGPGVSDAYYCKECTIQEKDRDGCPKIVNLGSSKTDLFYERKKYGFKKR
T1 sequence (O75533 454-1304): as the sequence (O75533 454-1304) above
T1 sequence (Q9BWJ5 whole entry, further chain, the tested form may be a part): as the sequence (Q9BWJ5 whole entry, further chain, the tested form may be a part) above
T1 sequence (Q7RTV0 whole entry, the tested form may be a part): as the sequence (Q7RTV0 whole entry Y36C, the tested form may be a part) above, with C36Y counted along it
T1 sequence (Q15393 whole entry, further chain, the tested form may be a part): as the sequence (Q15393 whole entry, the tested form may be a part) above
T2 sequence (Q7RTV0 whole entry, the tested form may be a part): as the sequence (Q7RTV0 whole entry Y36C, the tested form may be a part) above, with C36Y counted along it
T2 sequence (Q15393 whole entry, further chain, the tested form may be a part): as the sequence (Q15393 whole entry, the tested form may be a part) above
T2 sequence (O75533 454-1304): as the sequence (O75533 454-1304) above
T2 sequence (Q9BWJ5 whole entry, further chain, the tested form may be a part): as the sequence (Q9BWJ5 whole entry, further chain, the tested form may be a part) above

`CCC(O)C(C)C1OC1CC(C)(O)C=CC=C(C)C1OC(=O)CC(O)CCC(C)(O)C(OC(=O)N2CCN(C3CCCCCC3)CC2)C=CC1C` (stereo not drawn) [Compound E7107]: the Kd (commonly the constant that tells how readily two partners part at equilibrium) in assay [1] is 3.6 nM and ~3.6 nM. The IC50 (commonly the midpoint of a concentration-inhibition curve) in assay [2] amounted to 67 nM. In addition, in assay [3], the “binding to PHF5A^Y36C mutant complex” value is “no binding was detected; also recorded: not able to bind”.
